The text below walks through data of article PMC10655324, “Combinative effects of akarkara root-derived metabolites on anti-inflammatory and anti-alzheimer key enzymes: integrating bioassay-guided fractionation, GC-MS analysis, and in silico studies” (BMC Complementary Medicine and Therapies, 2023).

Like-named read-outs stand apart in the source and are kept apart here.

Assay [1] in a line: DPPH radical scavenging assay. The following applies: for IC50: isolated compounds and Trolox. The method, then:
The extract and fractions were prepared in dimethyl sulfoxide (DMSO) at a concentration of 1mg/mL, while the isolated compounds were tested in 500 µM.
The 2,2-diphenyl-1-picrylhydrazyl (DPPH) assay was performed as described previously. One hundred μL of DPPH reagent (freshly prepared as 0.1% in methanol) was mixed with equal volume of each sample. Then, the solutions were left in the dark at room temperature for […]. Trolox (6-hydroxy-2,5,7,8-tetramethylchroman-2-carboxylic acid) was used as a positive control. The absorbances were measured at 517 nm. Data are represented as means ± SD according to the following equation:
Percentage inhibition = [(Average absorbance of blank - average absorbance of the test)/(Average absorbance of blank)] x 100
The IC50 of each tested sample was determined.
Background: The DPPH test is a chemical assay of radical scavenging.

A further assay addresses AChE (Homo sapiens, UniProt P22303). As to the kind of experiment: biochemical. As to the method: (§1) The cholinesterase inhibitory activity was determined colorimetrically as previously published method with slight modifications. […] In a 96-well plate, 170 μl Tris-HCl buffer (200 mM, pH 7.5) was mixed with 20 μL of each tested sample solution and 20 μL of 0.1 U/ml enzyme solution (Ache or BChE) containing 0.1% bovine serum albumin in the same buffer. Dithio-bis-(2-nitrobenzoic acid) DTNB, an indicator, was added after 10 min of incubation at 25 °C (0.69 mM in tris buffer). […] In the control assays without the inhibitors, the tested samples were replaced by DMSO (20 μl) and their absorbance values were recorded (Reading B). Regarding the blank assays, the buffer (20 μL) was added instead of the enzyme.
(§2) The % inhibition was calculated using the following formula:
(§3) % of inhibition = [1− (corrected A/corrected B)] * 100

The next assay addresses BChE (Homo sapiens, UniProt P06276). As to the kind of experiment: biochemical. The method, then:
as §1, §2, §3

The test system of the next assay is iNOS. Description: iNOS inhibitory activity in LPS-induced RAW264.7 macrophages (nitrite, Griess reagent). In kind it is cell-based. The following applies: Mus musculus. The method, then: The RAW264.7 macrophage cells were grown on DMEM media, supplemented with 10% FBS and 1% P/S (100 U/ml and […], respectively). The RAW264.7 macrophage cells were kept in DMEM at 37 °C and 5% CO2. For the anti-inflammatory assays, cells were used at 60% confluency after a 24-hour acclimatization period.
Stock solutions of the extract, fractions (1 mg/mL) and the isolated compounds (1000 μM) were made by dissolving in 0.1% DMSO in PBS (pH 7.2). For experiments, they were further diluted with DMEM to obtain the desired concentration. In a 96-well plate, the RAW264.7 macrophages were seeded (4 × 10^3 cells per well) overnight, then washed with DMEM. The macrophages were pre-treated with various concentrations of the extract, fractions (125- 0.98 µg/mL), isolated compounds, and standard drugs (125 - 0.06 µM) for 30 min, and further incubated with LPS (1 μg/mL) for 24 h. For the negative control, cells were treated with 0.1% DMSO (negative control LPS-). After incubation, the monolayer of […] cells were washed with ice-cold PBS (pH 7.2), trypsinized, and treated with lysis buffer (1% Triton X-100, 50 mMTris–HCl, pH 7.4, 0.2% sodium dodecyl sulfate, 0.2% sodium deoxycholate, 1 mM phenylmethylsulfonyl fluoride, 1 mM sodium ethylenediaminetetraacetate, 5 μg/mL of leupeptin, 5 μg/mL of aprotinin) then centrifuged (5000 rpm for 10 min) to collect the supernatant, The cell lysates were stored at − 80 °C utilized for anti-inflammatory assays.
The inhibitory activity of Inducible nitric oxide synthase (iNOS) was determined in terms of nitric oxide (NO) concentration by measuring the quantity of nitrite in the cell culture supernatant using Griess reagent. Equal volumes of each cell lysate (100 µL) and Griess reagent (1% sulfanilamide, 0.1% naphthylethylenediamine dihydrochloride, and 5% phosphoric acid) were mixed and incubated at room temperature for 10 min. Using a microplate reader, absorbances at 540 nm were measured. Parthenolide served as a positive control. The % inhibition was calculated using the following formula:
iNOS % Inhibition= [(OD control−OD sample)/ OD control x 100].

The mark [2] stands for this setting: LPS-induced RAW264.7 macrophages, isolated compounds and Parthenolide, read-out: iNOS IC50.

AChE, sequence (P22303 32-614): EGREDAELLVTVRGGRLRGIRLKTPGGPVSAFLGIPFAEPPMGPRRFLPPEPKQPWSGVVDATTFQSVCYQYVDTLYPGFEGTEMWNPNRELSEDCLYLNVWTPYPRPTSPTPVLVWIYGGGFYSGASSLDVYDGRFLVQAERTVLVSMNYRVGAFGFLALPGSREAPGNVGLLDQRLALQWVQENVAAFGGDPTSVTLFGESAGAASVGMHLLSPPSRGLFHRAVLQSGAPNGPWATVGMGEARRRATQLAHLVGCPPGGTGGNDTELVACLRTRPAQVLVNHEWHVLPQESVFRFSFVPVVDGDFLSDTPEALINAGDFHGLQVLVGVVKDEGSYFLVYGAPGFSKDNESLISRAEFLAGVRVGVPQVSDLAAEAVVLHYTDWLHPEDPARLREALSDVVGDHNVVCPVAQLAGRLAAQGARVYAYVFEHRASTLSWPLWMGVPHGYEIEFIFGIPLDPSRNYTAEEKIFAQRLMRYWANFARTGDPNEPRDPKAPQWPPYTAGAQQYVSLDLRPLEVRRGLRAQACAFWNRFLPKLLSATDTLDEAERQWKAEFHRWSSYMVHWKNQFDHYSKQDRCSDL
BChE, sequence (P06276 29-602, species assumed): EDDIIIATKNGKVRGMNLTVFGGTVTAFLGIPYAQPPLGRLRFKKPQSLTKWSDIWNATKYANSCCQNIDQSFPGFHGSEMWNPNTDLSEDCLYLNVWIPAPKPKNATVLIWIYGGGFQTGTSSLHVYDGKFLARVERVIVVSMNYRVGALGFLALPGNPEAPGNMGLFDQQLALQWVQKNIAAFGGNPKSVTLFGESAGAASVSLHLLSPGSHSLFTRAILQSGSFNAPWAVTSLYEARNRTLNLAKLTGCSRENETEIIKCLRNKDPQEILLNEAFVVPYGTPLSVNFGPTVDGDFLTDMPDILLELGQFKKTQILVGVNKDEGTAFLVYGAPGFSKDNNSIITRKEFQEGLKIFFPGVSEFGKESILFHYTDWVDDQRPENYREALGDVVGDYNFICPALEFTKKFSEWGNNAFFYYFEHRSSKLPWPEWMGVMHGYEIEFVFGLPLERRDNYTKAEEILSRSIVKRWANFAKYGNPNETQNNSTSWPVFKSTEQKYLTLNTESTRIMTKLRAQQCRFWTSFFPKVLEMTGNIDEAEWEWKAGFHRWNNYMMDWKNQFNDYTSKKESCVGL

As a reminder, the IC50 is the concentration that gives 50% inhibition. In the case of `CCCCCCCC/C=C\CCCCCCCC(N)=O` [A1, 9-cis-octadecenamide], the IC50 in assay [1] amounted to 21.67 ± 0.21 µM; against AChE, 8.37 ± 0.1 µM; against BChE it was 9.29 ± 0.29 µM; in the assay with iNOS (RAW264.7, read-out: iNOS IC50) it was 10.3 ± 0.12 µM.

As for `CC[C@H](/C=C/[C@@H](C)[C@H]1CC[C@H]2[C@@H]3CC=C4C[C@@H](O)CC[C@]4(C)[C@H]3CC[C@]12C)C(C)C` [A2, stigmasterol], the IC50 in assay [1] came out at 16.4 ± 0.23 µM; in the assay with iNOS (RAW264.7, read-out: iNOS IC50), 6.72 ± 0.08 µM.

`CCCCC/C=C/C=C/C(=O)NCCc1ccccc1` [A3, 2E, 4E-deca-2,4-dienoic acid 2-phenylethyl amide]: the IC50 amounted to 17.73 ± 0.16 µM in assay [1], 7.7 ± 0.26 µM against AChE, 8.65 ± 0.25 µM at BChE and 9.15 ± 0.12 µM in the assay with iNOS (setting [2]).

`CCCCC/C=C/C=C/C(=O)NCC(C)C` [A4, deca-2E,4E-dienoic acid isobutylamide]: the IC50 in assay [1] stood at 22.6 ± 0.41 µM; with iNOS (RAW264.7, read-out: iNOS IC50), 11.4 ± 0.36 µM.

Take `C=C1C(=O)O[C@H]2[C@H]1CC/C(C)=C/CC[C@@]1(C)O[C@@H]21` [Parthenolide, reference compound]: the IC50 in the assay with iNOS (setting [2]) was found to be 4.1 ± 0.08 µM.

`Cc1c(C)c2c(c(C)c1O)CCC(C)(C(=O)O)O2` (stereo not drawn) [Trolox, 6-hydroxy-2,5,7,8-tetramethylchroman-2-carboxylic acid, reference compound]: the “DPPH IC50” value in assay [1] (extract, fractions and Trolox standard) was determined as 1.41 ± 0.08 µg/mL. In assay [1], this molecule came in with an IC50 of 5.63 µM.
